According to patent publication US20260049072A1, “HETEROCYCLIC COMPOUND FOR INDUCING DEGRADATION OF MUTANT KRAS PROTEIN” (Astellas Pharma Inc., priority 2022, published 2026):

Key:
RAS G12V = target: T1, RAS G12V (Homo sapiens, UniProt P01116, G12V); test: RAS G12V degradation activity, Cell ELISA, PA-TU-8902; type: cell-based; conditions: PA-TU-8902 cells, 24 hours, 100% = Example compound 17 at 1 μM; read-out: DC50 (RAS G12V 50% degradation value)
T1 construct: host or cells: PA-TU-8902 human pancreatic cancer cells
T1 sequence (P01116 1-188 isoform P01116-2 G12V): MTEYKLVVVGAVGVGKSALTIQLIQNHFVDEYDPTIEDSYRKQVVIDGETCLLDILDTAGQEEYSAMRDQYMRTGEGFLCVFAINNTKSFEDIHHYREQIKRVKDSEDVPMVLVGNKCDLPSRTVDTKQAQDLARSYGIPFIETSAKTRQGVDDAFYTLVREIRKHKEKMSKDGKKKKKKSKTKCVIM
Protocol: Test Example 1-1: Evaluation of RAS G12V Degradation Activity on Human KRAS G12V Mutant-Positive Pancreatic Cancer Line PA-TU-8902
The RAS G12V degradation activities of subject compounds were evaluated by measuring the expression levels of RAS G12V by a Cell ELISA method.
PA-TU-8902 cells (DSMZ, ACC 179) were seeded at 36 μL per well on a 384-well plate (from Greiner bio-one) to give 1.5×10^4 cells per well. As for the cell culture conditions, DMEM medium (from Sigma-Aldrich) containing 10% fetal bovine serum (from Cytiva) was used in the presence of 5% CO2 at 37° C.
The next day, the subject compounds (10 points having final concentrations in the range of 3 μM to 0.1 nM), Example compound 17 of a final concentration of 1 μM as a positive control and dimethyl sulfoxide (DMSO), which was the solvent for the subject compounds, as a negative control were diluted 100-fold with a fresh medium and were each added at 4 μL per well, followed by culturing for 24 hours.
The next day, the culture supernatant was removed, and a 4% paraformaldehyde phosphate buffer solution (from FUJIFILM Wako) was added at 20 μL per well. The plate was allowed to stand for 30 minutes at room temperature to thus immobilize the cells. Then, the supernatant was removed, and 0.1% Triton X-100 (from Amersham Biosciences)-containing Phosphate buffered saline (PBS) was added at 20 μL per well. After allowing the plate to stand at room temperature for 10 minutes, the supernatant was removed, and the wells were washed twice in total by adding PBS at 25 μL per well and removing the supernatant. The washing operations below were performed in the same manner. Next, the supernatant was removed, and 0.5% sodium dodecyl sulfate (SDS; from ThermoFisher Scientific)-containing PBS was added at 20 μL per well. After allowing the plate to stand at room temperature for 10 minutes, the plate was centrifuged to remove the supernatant. After washing with PBS, the supernatant was removed by centrifugation, and a blocking solution (PVDF Blocking Reagent for Can Get Signal; from TOYOBO) was added at 20 μL per well. After allowing the plate to stand for 30 minutes at room temperature, the supernatant was removed by centrifugation, and a solution obtained by diluting an anti-Ras (G12V Mutant Specific) antibody (Ras (G12V Mutant Specific) (D2H12) Rabbit mAb; from Cell Signaling Technology; 500-fold dilution) and an anti-3-actin antibody (Anti-beta Actin antibody; from Abcam; 5,000-fold dilution) with Can Get Signal Solution 2 (from TOYOBO) was added at 15 μL per well as primary antibodies. The plate was allowed to stand overnight at 4° C.
The next day, the supernatant was removed by centrifugation, and the plate was washed with PBS. The supernatant was removed by centrifugation, and a solution obtained by diluting an anti-rabbit IgG antibody (IRDye 800CW Goat anti-Rabbit IgG; from LI-COR Biosciences) and an anti-mouse IgG antibody (IRDye 680RD Donkey anti-Mouse IgG; from LI-COR Biosciences) 1,000-fold with Can Get Signal Solution 2 was added at 15 μL per well as secondary antibodies. After allowing the plate to stand at room temperature for an hour, the supernatant was removed by centrifugation, and the plate was washed with PBS. After removing the supernatant, the plate was dried as it was with air at room temperature for two hours or more, and the 700-nm and 800-nm fluorescent signals were measured with Aerius (from LI-COR Biosciences).
With the RAS G12V signaling value at the time of addition of DMSO corrected with the signaling value of 3-actin taken as 0% and with the RAS G12V signaling value at the time of addition of Example compound 17 of a final concentration of 1 μM taken as 100%, the RAS G12V degradation rates were calculated. The 50% degradation values (DC50) were calculated by Sigmoid-Emax model nonlinear regression analysis.

PA-TU-8902 cells = test: Non-anchorage-dependent cell growth inhibition (spheroid 3D culture), PA-TU-8902; type: cell-based, human; conditions: Homo sapiens, PaTu 8902, 144 h; KRAS G12V mutant-positive, 3D spheroid, six days, CellTiter-Glo 2.0; read-out: PA-TU-8902 IC50
Protocol: (§1) Test Example 3: Evaluation of Non-Anchorage-Dependent Cell Growth Inhibitory Activity on Human KRAS G12V Mutant-Positive Pancreatic Cancer Line PA-TU-8902, Human KRAS G12D Mutant-Positive Pancreatic Cancer Line AsPC-1 or Human KRAS G12C Mutant-Positive Pancreatic Cancer Line MIA PaCa-2
(§2) The non-anchorage-dependent cell growth inhibitory activities of subject compounds were evaluated by spheroid 3D cell culture.
(§3) PA-TU-8902 cells, AsPC-1 cells or MIA PaCa-2 cells (RIKEN BRC, RCB2094) were seeded at 36 µL/well on a low-cell-adhesive round bottom 384-well plate (Prime Surface: from Sumitomo Bakelite) to give 5×10^2 cells per well. The PA-TU-8902 cells were under the same conditions as in Test Example 1-1, and the AsPC-1 cells were under the same conditions as in Test Example 1-2. For the MIA PaCa-2 cells, RPMI-1640 medium containing 10% fetal bovine serum was used in the presence of 5% CO2 at 37° C.
(§4) The next day, the subject compounds (6-9 points having final concentrations in the range of 3 μM to 0.3 nM) and DMSO, which was the solvent for the subject compounds, as a negative control were diluted 100-fold with a fresh medium and were each added at 4 μL per well. After culturing in the presence of 5% CO2 at 37° C. for six days, CellTiter-Glo 2.0 (from Promega) was added at 20 μL per well. After stirring with a plate mixer (from FINEPCR) at normal temperature for an hour, the luminescent signals were measured with ARVO X3 (from PerkinElmer).
(§5) With the signaling value in treatment with DMSO taken as 0% inhibition and with the signaling value in the medium alone without cells taken as 100% inhibition, the 50% inhibition values (IC50) were calculated by Sigmoid-Emax model nonlinear regression analysis.

MIA PaCa-2 cells = test: Non-anchorage-dependent cell growth inhibition (spheroid 3D culture), MIA PaCa-2; type: cell-based; conditions: Homo sapiens, MIA PaCa-2, 144 h; KRAS G12C mutant-positive, 3D spheroid, six days, CellTiter-Glo 2.0; read-out: MIA PaCa-2 IC50
Protocol: as §1, §2, §3, §4, §5

| SMILES | DC50 (RAS G12V) | IC50 (MIA PaCa-2 cells) | IC50 (PA-TU-8902 cells) |
| --- | --- | --- | --- |
| CO[C@@H](C)COc1nc(N2CCOCC2)c2cc(C3CC3)c(-c3c(C)c(F)cc4[nH]ncc34)c(OCc3ccc(-c4cn([C@H](C(=O)N5C[C@H](O)C[C@H]5C(=O)N[C@@H](CO)c5ccc(-c6scnc6C)cc5)C(C)C)nn4)cc3)c2n1 (atropisomer, axis not shown) [Example 21] | 0.035 µM | 0.011 µM | 0.06 µM |
| CNCCNC(=O)N1CC(Oc2nc(OC[C@H](C)OC)nc3c(OCc4ccc(-c5cn([C@H](C(=O)N6C[C@H](O)C[C@H]6C(=O)N[C@@H](CO)c6ccc(-c7scnc7C)cc6)C(C)C)nn5)cc4)c(-c4c(C)c(F)cc5[nH]ncc45)c(C4CC4)cc23)C1 (atropisomer, axis not shown) [Example 18] | 0.069 µM | 0.026 µM | 0.069 µM |
| CO[C@@H](C)COc1nc(NC2CN(C(=O)O[C@H]3C[C@@H](N(C)C)C3)C2)c2cc(C3CC3)c(-c3c(C)c(F)cc4[nH]ncc34)c(OCc3ccc(-c4cn([C@H](C(=O)N5C[C@H](O)C[C@H]5C(=O)N[C@@H](CO)c5ccc(-c6ocnc6C)cc5)C(C)C)nn4)cc3)c2n1 (atropisomer, axis not shown; (M)) [Example 1, (1s,3R)-3-(dimethylamino)cyclobutyl 3-({(7M)-6-cyclopropyl-7-(6-fluoro-5-methyl-1H-indazol-4-yl)-8-{[4-(1-{(2S)-1-[(2S,4R)-4-hydroxy-2-({(1R)-2-hydroxy-1-[4-(4-methyl-1,3-oxazol-5-yl)phenyl]ethyl}carbamoyl)pyrrolidin-1-yl]-3-methyl-1-oxobutan-2-yl}-1H-1,2,3-triazol-4-yl)phenyl]methoxy}-2-[(2S)-2-methoxypropoxy]quinazolin-4-yl}amino)azetidine-1-carboxylate] | 0.031 µM | 0.011 µM | 0.057 µM |
| CO[C@@H](C)COc1nc(N2CC(C#N)C2)c2cc(C3CC3)c(-c3c(C)c(F)cc4[nH]ncc34)c(OCc3ccc(-c4cn([C@H](C(=O)N5C[C@H](O)C[C@H]5C(=O)N[C@@H](CO)c5ccc(-c6scnc6C)cc5)C(C)C)nn4)cc3)c2n1 (atropisomer, axis not shown) [Example 20] | 0.048 µM | 0.014 µM | 0.063 µM |

Molecules with a lower DC50 (RAS G12V), results first:

| DC50 (RAS G12V) | IC50 (MIA PaCa-2 cells) | SMILES | IC50 (PA-TU-8902 cells) |
| --- | --- | --- | --- |
| 0.008 µM | 0.005 µM | Cc1ncsc1-c1ccc([C@H](CO)NC(=O)[C@@H]2C[C@@H](O)CN2C(=O)[C@H](C(C)C)n2cc(-c3ccc(COc4c(-c5c(C)c(F)cc6[nH]ncc56)c(C5CC5)cc5c(NCc6cccnc6)nc(OC6CCOCC6)nc45)cc3)nn2)cc1 [Example 29] | 0.063 µM |
| 0.01 µM | 0.01 µM | CO[C@@H](C)COc1cc(OC2CN(C(=O)N3CC(CN(C)C)C3)C2)c2cc(C3CC3)c(-c3c(C)c(F)cc4[nH]ncc34)c(OCc3ccc(-c4cn([C@H](C(=O)N5C[C@H](O)C[C@H]5C(=O)N[C@@H](CO)c5ccc(-c6scnc6C)cc5)C(C)C)nn4)cc3)c2n1 (atropisomer, axis not shown; (M)) [Example 14, (4R)-1-[(2S)-2-(4-{4-[({(7M)-6-cyclopropyl-4-[(1-{3-[(dimethylamino)methyl]azetidine-1-carbonyl}azetidin-3-yl)oxy]-7-(6-fluoro-5-methyl-1H-indazol-4-yl)-2-[(2S)-2-methoxypropoxy]quinolin-8-yl}oxy)methyl]phenyl}-1H-1,2,3-triazol-1-yl)-3-methylbutanoyl]-4-hydroxy-N-{(1R)-2-hydroxy-1-[4-(4-methyl-1,3-thiazol-5-yl)phenyl]ethyl}-L-prolinamide] | 0.047 µM |
| 0.023 µM | 0.005 µM | Cc1ncsc1-c1ccc([C@H](CO)NC(=O)[C@@H]2C[C@@H](O)CN2C(=O)[C@H](C(C)C)n2cc(-c3ccc(COc4c(-c5c(C)c(F)cc6[nH]ncc56)c(C5CC5)cc5c(N6CC[C@H]6C(N)=O)nc(OC6CCOCC6)nc45)cc3)nn2)cc1 [Example 35] | 0.032 µM |
